Here are results for 5 compounds from patent EP0086590A1, “Antibacterial agents, their preparation and use” (priority 1982, dated 1983).

In one data set the test system is Enterobacter cloacae N1. The data set is described as follows: Antibacterial activity (mic). Type of data set: cell-based.
Another data set relates to Escherichia coli 0111. The data set is described as follows: Antibacterial activity (mic). The format is cell-based.
A further data set has as its system Escherichia coli JT39 R+. The data set is described as follows: Antibacterial activity (mic). Type of data set: cell-based.
The next data set has as its system Escherichia coli ESS. The data set is described as follows: Antibacterial activity (mic). Type of data set: cell-based.
Another data set concerns Escherichia coli E8. The data set is described as follows: Antibacterial activity (mic). Type of data set: cell-based.
Another data set deals with Escherichia coli E96 R+. The data set is described as follows: Antibacterial activity (mic). The format is cell-based.
The next data set has as its system Klebsiella aerogenes A. The data set is described as follows: Antibacterial activity (mic). The format is cell-based.
For another data set, the system named is Proteus mirabilis 977. The data set is described as follows: Antibacterial activity (mic). The format is cell-based.
Another data set has as its system Proteus rettgeri WM16. The data set is described as follows: Antibacterial activity (mic). Type of data set: cell-based. Conditions: Providencia rettgeri.
The next data set has as its system Pseudomonas aeruginosa A. The data set is described as follows: Antibacterial activity (mic). The format is cell-based.
Data set [1] relates to Pseudomonas aeruginosa 11. The data set is described as follows: Antibacterial activity (mic). The format is cell-based.
Data set [2] deals with Pseudomonas aeruginosa Dalgleish. The data set is described as follows: Antibacterial activity (mic). Type of data set: cell-based.
The subject of another data set is Serratia marcescens US20. The data set is described as follows: Antibacterial activity (mic). The format is cell-based.
The test system of a further data set is Bacillus subtilis A. The data set is described as follows: Antibacterial activity (mic). Type of data set: cell-based.
Data set [3] deals with Staphylococcus aureus Oxford. The data set is described as follows: Antibacterial activity (mic). The format is cell-based.
The subject of data set [4] is Staphylococcus aureus Russell. The data set is described as follows: Antibacterial activity (mic). The format is cell-based.
A further data set relates to Streptococcus faecalis I. The data set is described as follows: Antibacterial activity (mic). Type of data set: cell-based. Conditions: Enterococcus faecalis.
Data set [5] in a line: Effect of serum on antibacterial activity. Type of data set: cell-based.
Data set [6] is described as follows: Mouse urinary recovery of antibacterial agent. The format is in vivo. Conditions: urine, sc, 10 mg/kg s/c, parent antibacterial agent administered alone. How it is done:
By way of comparison. the parent antibacterial agent of the compound of Example 2 (ie sodium salt of [-2-acetamido- ethenylthio]-6-(I-hydroxysulphonyloxyethyl)-7-oxo-l-azabicyclo[3.2.0]hept-2-ene-2-carboxylic acid) was administered together with the corresponding dipeptidase inhibitor (ie 2-isovaleramidobut-2-ene) in a 1:1 relationship. […] However, since the compound of Example 2 liberates an approximate ratio of 2:1 by weight of antibacterial agent to inhibitor, the compound of Example 2 makes much more efficient use of the dipeptidase inhibitor.

Another data set deals with Proteus morganii 1580. The data set is described as follows: Antibacterial activity (mic). The format is cell-based. Conditions: Morganella morganii.
The subject of data set [7] is Serratia marcescens NEU3974. The data set is described as follows: Antibacterial activity (mic). The format is cell-based.
For another data set, the system named is Proteus mirabilis 13. The data set is described as follows: Antibacterial activity (mic). Type of data set: cell-based.

SMILES strings stand for the structures. Values after ≈ are worked out from the molar mass of the structure shown. Where a name gives a salt, the structure may show the parent alone.

Broadly, the MIC is the smallest concentration in the dilution series that meets the test's criterion for growth inhibition. Low values mean inhibition by little substance, high ones a need for much substance.

For `CC=C(NC(=O)CC(C)C)C(=O)OCOC(=O)C1=C(SC=CNC(C)=O)CC2C(C(C)OS(=O)(=O)O)C(=O)N12` [Example 2, Sodium salt of 2-Isovaleramidobut-2Z-en-oyloxymethyl (5R,6R)-3-[(E)-2-acetamidoethenylthio]-6-[(S)-l-hydroxysulphonyloxyethyl]-7-oxo-l-azabicyclo[3.2.0]hept 2-ene-2-carboxylate], the MIC came out at 3.1 µg/mL with Enterobacter cloacae N1; 3.1 µg/mL against Escherichia coli 0111; 1.6 µg/mL in the data set with Escherichia coli JT39 R+; 1.6 µg/mL with Escherichia coli ESS; 6.2 µg/mL in the data set on Escherichia coli E8; 12.5 µg/mL in the data set on Escherichia coli E96 R+. In addition, the MIC in the data set with Klebsiella aerogenes A turned out to be 0.4 µg/mL; with Proteus mirabilis 977 it was 3.1 µg/mL; in the data set with Proteus rettgeri WM16 it was 0.8 µg/mL; with Pseudomonas aeruginosa A, 100 µg/mL; in data set [1] it was 100 µg/mL; in data set [2], 100 µg/mL. The MIC in the data set on Serratia marcescens US20 was 6.2 µg/mL; with Bacillus subtilis A, 1.6 µg/mL; in data set [3] it was 1.6 µg/mL; in data set [4], 3.1 µg/mL; in the data set on Streptococcus faecalis I, 50 µg/mL. Further, the “Effect of serum on activity” value in data set [5] is listed as 2-4 fold.
As to `CC(=O)NC=CSC1=C(C(=O)O)N2C(=O)C(C(C)O)C2C1` [(A), Sodium (5R,6R)-3-[(E)-2-acetamidoethenylthio]-6-[(S)-1-hydroxyethyl]-7-axo-1-azabicyclo[3.2.0]hept-2-ene-2-carboxylate], the dose excreted in [6] was 0.3%.
`C/C=C(\NC(=O)CC(C)C)C(=O)OCOC(=O)C1=C(Sc2ncccn2)C[C@@H]2[C@@H]([C@@H](C)O)C(=O)N12` (racemic) [Example 3, 2-Isovaleramidobut-2Z-enoyloxymethyl 5(R,S),6(S,R)-3-(pyrimidin-2-ylthio)-6-[l(R,S)-hydroxyethyl]-7-oxo-1-azabicyclo[3.2.0]hept-2-ene-2-carboxylate]: the MIC against Enterobacter cloacae N1 was found to be 25 µg/mL (≈ 49.5 µM); with Escherichia coli 0111, 6.2 µg/mL (≈ 12.3 µM); with Escherichia coli JT39 R+, 3.1 µg/mL (≈ 6.14 µM); in the data set with Escherichia coli ESS it was 1.6 µg/mL (≈ 3.17 µM); in the data set on Klebsiella aerogenes A, 3.1 µg/mL (≈ 6.14 µM); in the data set on Proteus mirabilis 977 it was 12.5 µg/mL (≈ 24.8 µM). The MIC in the data set with Proteus morganii 1580 was 25 µg/mL (≈ 49.5 µM); with Proteus rettgeri WM16, 25 µg/mL (≈ 49.5 µM); in the data set with Pseudomonas aeruginosa A, more than 100 µg/mL; in data set [2], more than 100 µg/mL; against Bacillus subtilis A, 0.8 µg/mL (≈ 1.59 µM); in data set [3] it was 0.8 µg/mL (≈ 1.59 µM). Besides, the MIC was 0.8 µg/mL (≈ 1.59 µM) in data set [4], 50 µg/mL (≈ 99.1 µM) with Streptococcus faecalis I and 100 µg/mL (≈ 198 µM) in [7]. For the same compound, the “Effect of serum on activity” value in data set [5] was 10-20 fold.
Turning to `C/C=C(\NC(=O)CC(C)C)C(=O)OCOC(=O)C1=C(S/C=C/NC(C)=O)C[C@@H]2[C@H]([C@H](C)O)C(=O)N12` [Example 1, 2-Isovaleramidobut-2Z-enoyloxymethyl (5R,6R)-3-[(E)-2-acetamidoethenylthio]-6-[(S)-1-hydroxyethyl]-7-oxo-1-azabicyclo[3.2.0]hept-2-ene-2-carboxylate], the MIC in the data set on Enterobacter cloacae N1 turned out to be 6.2 µg/mL (≈ 12.2 µM); in the data set with Escherichia coli 0111 it was 0.8 µg/mL (≈ 1.57 µM); in the data set with Escherichia coli JT39 R+, 25 µg/mL (≈ 49.1 µM); against Escherichia coli ESS, 0.2 µg/mL (≈ 0.392 µM); against Escherichia coli E8, 0.8 µg/mL (≈ 1.57 µM); in the data set on Escherichia coli E96 R+, 100 µg/mL (≈ 196 µM). Also, the MIC against Klebsiella aerogenes A is 6.2 µg/mL (≈ 12.2 µM); with Proteus mirabilis 977 it was 3.1 µg/mL (≈ 6.08 µM); with Proteus mirabilis 13 it was 0.8 µg/mL (≈ 1.57 µM); in the data set on Proteus morganii 1580, 25 µg/mL (≈ 49.1 µM); in the data set with Proteus rettgeri WM16, 6.2 µg/mL (≈ 12.2 µM); against Pseudomonas aeruginosa A, more than 100 µg/mL. Moreover, the MIC in data set [1] is 100 µg/mL (≈ 196 µM); in [2], 100 µg/mL (≈ 196 µM); against Serratia marcescens US20 it was 6.2 µg/mL (≈ 12.2 µM); in the data set with Bacillus subtilis A it was 0.4 µg/mL (≈ 0.785 µM); in data set [3], 0.4 µg/mL (≈ 0.785 µM); in [4], 0.8 µg/mL (≈ 1.57 µM). Besides, 3.1 µg/mL (≈ 6.08 µM) was the least that counted as inhibitory in the data set with Streptococcus faecalis I (MIC). For the same compound, the “Effect of serum on activity” value in [5] is reported as 2-8 fold.
As to `CC(=O)NC=CSC1=C(C(=O)O)N2C(=O)C(C(C)OS(=O)(=O)O)C2C1` (stereo not drawn) [(B), sodium salt of [-2-acetamido-ethenylthio]-6-(I-hydroxysulphonyloxyethyl)-7-oxo-l-azabicyclo[3.2.0]hept-2-ene-2-carboxylic acid], the dose excreted in data set [6] worked out at 1.5%.
